# Where two headings read alike, the source gives them in different places.
# Tests used:
# [1] = Thoracic lymph duct and portal vein cannulated greyhound dog study: lymphatic transport of halofantrine and triglyceride, systemic availability; conditions: fed dogs, IV 2 mg/kg, over 12 h, mean +/- sd, n = 3
# Description: (§1) All surgical and experimental procedures were performed in accordance with the guidelines and approval of the local Institutional Animal Experimentation Ethics Committee. Studies were conducted in male greyhound dogs (28-35 kg), and their health status was verified by a veterinarian prior to the study. Prior to surgery, each dog was fed a small lipid meal to facilitate identification of the thoracic duct. […] Each dog received intravenous infusion of Lactated Ringer's solution (300 mL/h) during surgery, and a post-operative injection of antibiotic (cephazolin, 20 mg/kg) and analgesic (carprofen, 4 mg/kg).
# (§2) The ventral abdomen was firstly clipped and prepared for aseptic surgery. A 5 cm long ventral midline laparotomy was performed to allow a loop of jejunum to be exteriorised. A 133 mm 16 gauge cannula was then inserted into a jejunal vein to the level of the portal vein. The cannula was stabilised in both the portal and jejunal veins with a ligature of 3/0 silk to the jejunal vein and a minimal volume extension tube, filled with heparinised saline, was then attached and externalised through a separate stab incision in the left flank and stabilised with sutures. The laparotomy wound was closed in anatomical layers with 3/0 polydioxinone sutures. The position of the cannula in the portal vein was confirmed by a portal venogram following a 10 mL injection of a contrast dye (Iohexol), and cannula patency was maintained by small volume flushing with heparinised saline (1 U/mL).
# (§3) The left ventral neck area and cranial thorax was clipped and prepared for aseptic surgery. A curved incision was made over the left external jugular vein and the vein was then dissected from the surrounding tissues to the axillary vein. At the junction of the internal jugular and brachiocephalic veins, the thoracic duct ampulla was identified by its whitish appearance This was then ligated at the point of entrance into the brachiocephalic vein and all tributaries converging to the thoracic duct were ligated to ensure the return of lymph through the main lymphatic canal. […]
# [2] = conscious rats, cited from earlier work
# [3] = rats, soybean emulsion, 24 h post dosing; cited from earlier work
# [4] = rats; cited from earlier work
# [5] = dog, in vivo, po
# Description: as §1, §2, §3
# [6] = in vivo; cited from earlier work
# [7] = rats, oral, cited from earlier work
# [8] = in soybean oil; cited from earlier work
compound,measurement,setting,value
"CCCCN(CCCC)CCC(O)c1cc2c(Cl)cc(Cl)cc2c2cc(C(F)(F)F)ccc12 (centres unmarked) [Hf, halofantrine]",Cum Hf transport in lymph (% dose),[1],1.5 +/− 0.2 % dose
CCCCCCCCCCC(C)(C)C(=O)Nc1c(OC)cc(OC)cc1OC [Cl-976],"total amount transported in lymph as percent of dose, lipid-based emulsion compared with suspension",[2]; over 14 h,7 times
same,absolute amount of drug transported lymphatically,[2],< 1%
Cc1ccc2oc(N[C@@H](CC3CCCCC3)c3ccccn3)nc2c1 [ontazolast],"total amount of lymphatically transported ontazolast, increase versus aqueous based suspension",[3],~50 fold
COC1(O[C@H]2CC[C@H]3[C@@H]4CC[C@H]5C[C@@H]6S[C@@H]6C[C@]5(C)[C@H]4CC[C@]23C)CCCC1 [mepitiostane],"extent of lymphatic transport, polysorbate 80 micellar solution versus triglyceride lipid vehicle",[4],no significant differences
CCCCN(CCCC)CCC(O)c1cc2c(Cl)cc(Cl)cc2c2cc(C(F)(F)F)ccc12 (centres unmarked) [Hf base],Cum Hf transport in lymph (% dose),[5],1.3 +/− 0.7 % dose
same,Transport into syst circulation (% dose),[5],30.2 +/− 18.7 % dose
CCCCCCCCCCCCCCCC(=O)OC/C=C(C)/C=C/C=C(C)/C=C/C1=C(C)CCCC1(C)C [retinyl palmitate],"lymphatic transport, aqueous polysorbate 80 micellar solution compared with lipid solution",[6],two-fold increase
CC(C)CCC[C@@H](C)[C@H]1CC[C@H]2[C@@H]3[C@@H](C)C[C@H]4N(C)C(=O)CC[C@]4(C)[C@H]3CC[C@]12C [MK-386],rank order of total amount transported into the mesenteric lymph by formulation,[7]; 6 h post-dosing,aqueous suspension>mixed lipid/surfactant system>soybean oil
same,levels of radioactivity in the lymph compared with the portal blood,[7]; all three formulations,up to 80 fold
same,lipid solubility,[8],> 80 mg/mL

# — patent publication US20050209345A1, “Lymphatic drug delivery system” (priority 2001, published 2005)
